In publication PMC5749703, “Isolation and characterization of a novel metagenomic enzyme capable of degrading bacterial phytotoxin toxoflavin” (PLoS ONE, 2018):

Tested on: T1, TxeA
T1 construct: no evidence of oligomer
Experiment: toxoflavin degradation, initial velocities (HPLC)
Type: biochemical, uncultured bacterium
Conditions: pH 5.0, 20°C; Mn2+, DTT and oxygen required (DTT reduces toxoflavin to dihydrotoxoflavin)
Procedure: toxoflavin degradation, initial velocities (HPLC) on TxeA | apparent binding constants of substrate (KM) and catalytic efficiency (kcat/KM) for TxeA were determined

Q: For `Cn1ncnc2c(=O)n(C)c(=O)nc1-2` [toxoflavin, 1,6-dimethylpyrimido[5,4-e]-1,2,4-triazine-5,7(1H,6H)-dione], which Km is on record?
A: 14 µM
